Where only a bound is given, the exact number is not on record here.

A word on the EC50: it is the concentration that produces a half-maximal response. Read a high EC50 as lower potency in that assay. By inhibition is commonly meant the percentage by which the read-out fell short of the control.

What all share (type): cell-based
One assay has as its system SW480 colon cancer cells. Description: Cell viability assay (CellTiter-Blue) in SW480 colon cancer cells. The conditions noted are these: Homo sapiens; for EC50: 96 h, SW480 cell viability, four days; for inhibition at 10 µM: SW480, read-out: percent inhibition at 10 μM. As for the experimental part:
Representative compounds were screened using the following assay procedure to assess the effect on cell viability as described below.
Approximately 2×10^3 SW480 colon cancer cells were seeded into each well and allowed to incubate in the presence or absence of compound for four days at 37° C./5% CO2. Eight replicates of DMSO-treated cells served as controls and cells treated with compound were performed in duplicate.
After incubation, 20 μL of CellTiter-Blue (Promega) was added to each well allowed to incubate for approximately 3 hours. This reagent was a buffered solution which contains resazurin, metabolically active cells were able to reduce rezarurin (blue) into resorufin (pink) which was highly fluorescent. This measured fluorescence was used as a readout for cell viability.
In general terms: Resazurin is reduced to fluorescent resorufin, in cell work by metabolically active cells.

Assay [1] relates to Wnt activity (Sp5-Luc reporter, SW480 colon carcinoma cells). Description: Screening assay for Wnt activity: Sp5-Luc reporter gene assay in SW480 colon carcinoma cells. The following applies: Homo sapiens; for EC50: Sp5-Luc reporter, SW480 cells, overnight incubation; for inhibition at 10 µM: SW480, read-out: percent inhibition at 10 μM. An excerpt:
The screening assay for Wnt activity is described as follows. Reporter cell lines can be generated by stably transducing cancer cell lines (e.g., colon cancer) or primary cells (e.g., IEC-6 intestinal cells) with a lentiviral construct that includes a Wnt-responsive promoter driving expression of the firefly luciferase gene.
SW480 colon carcinoma cells were transduced with a lentiviral vector expressing luciferase with a human Sp5 promoter consisting of a sequence of eight TCF/LEF binding sites. SW480 cells stably expressing the Sp5-Luc reporter gene and a hygromycin resistance gene were selected by treatment with 150 μg/mL of hygromycin for 7 days. These stably transduced SW480 cells were expanded in cell culture and used for all further screening activities. […] For Sp5-Luc reporter gene assays, the cells were plated at 4,000 cells/well in 384-well plates with medium containing 1% fetal bovine serum and incubated overnight at 37° C. and 5% CO2. Following incubation, 20 μl of BrightGlo luminescence reagent (Promega) was added to each well of the 384-well assay plates. The plates were placed on an orbital shaker for 2 min and then luminescence was quantified using the Envision (Perkin Elmer) plate reader. Readings were normalized to DMSO only treated cells, and normalized activities were utilized for EC50 calculations using the dose-response log (inhibitor) vs. response-variable slope (four parameters) nonlinear regression feature available in GraphPad Prism 5.0 (or Dotmatics).
For orientation: In a reporter assay the amount or activity of a reporter protein is the signal.

Assay [2] has as its system primary human fibroblasts derived from IPF patients (LL29 cells) treated with TGF-β1. Description: Inhibition of the fibrotic process: αSMA staining in TGF-β1 treated LL29 fibroblasts. The conditions noted are these: Fibroblast; for EC50: 96 h, % αSMA positive LL29 cells, TGF-β1 20 ng/mL, 4 days; for inhibition at 10 µM: read-out: percent inhibition at 10 μM. On the procedure:
Representative compounds were screened using primary human fibroblasts (derived from IPF patients) treated with TGF-β1 to determine their ability to inhibit the fibrotic process.
LL29 cells are plated at 1,500 cells/well in 80 μL/well F12 medium supplemented with 1% Fetal Bovine Serum. […] Wells treated with TGF-β1 and containing DMSO were used as controls. […] Following incubation for 4 days, SYTOX green nucleic acid stain (Life Technologies [Thermo Fisher Scientific]) was added to the wells at a final concentration of 1 μM and incubated at room temperature for 30 min.

In another assay the test system is IL-6 (THP-1 cells). The assay can be described thus: IL-6 inhibition in LPS-stimulated THP-1 monocytes (HTRF). The conditions noted are these: Homo sapiens; for EC50: IL-6, THP-1 cells, LPS 500 ng/mL, 22 hours; for inhibition at 10 µM: THP-1, read-out: percent inhibition at 10 μM. As for the experimental part:
Compound Screening: THP-1 cells were cultured in basal media with 1% FBS for 24 hours before the start of the assay. […] THP-1 cells were plated at 5000 cells/well in the 384-well plates and incubated at 37° C. for 2 h. 500 ng/mL of LPS was added after 2 hours and cells were incubated for another 22 hours at 37° C. Plates were spun in a centrifuge for 1 minute at […] and a mixture of anti-IL6 XL665, and anti-IL6 Cryptate diluted in reconstitution buffer (Cisbio Inc.) was added to each well. Following incubation for 3 hrs at room temperature, Homogeneous Time-Resolved Fluorescence (HTRF) was measured using the Envision (Perkin Elmer) at 665 nm and […]. The ratio of fluorescence at 665 nm to 620 nm was used as a readout for IL6 quantification. All samples were processed in duplicate. Readings were normalized to DMSO treated cells and normalized activities were utilized for EC50 calculations using the dose-response log (inhibitor) vs. response-variable slope (four parameters) nonlinear regression feature available in GraphPad Prism 5.0 (or Dotmatics).
(In general: In TR-FRET formats the signal depends on donor and acceptor labels being close together.)

With `CC(C)(C)C(=O)Nc1cncc(-c2cc3c(-c4cc5c(-c6cccc(F)c6)nccc5[nH]4)n[nH]c3cn2)c1` [Compound 8, N-(5-(3-(4-(3-Fluorophenyl)-1H-pyrrolo[3,2-c]pyridin-2-yl)-1H-pyrazolo[3,4-c]pyridin-5-yl)pyridin-3-yl)pivalamide], the EC50 in the assay with SW480 colon cancer cells amounted to 1.72 µM; in assay [1] it was 1.18 µM; in assay [2], 0.627 µM; in the assay with IL-6 (THP-1 cells), 0.94 µM.
For `O=C(Nc1cncc(-c2cc3c(-c4cc5c(-c6cccc(F)c6)nccc5[nH]4)n[nH]c3cn2)c1)c1ccccc1` [Compound 11, N-(5-(3-(4-(3-Fluorophenyl)-1H-pyrrolo[3,2-c]pyridin-2-yl)-1H-pyrazolo[3,4-c]pyridin-5-yl)pyridin-3-yl)benzamide], the EC50 is greater than 10 µM in the assay with SW480 colon cancer cells, 3.82 µM in assay [1], greater than 10 µM in assay [2] and greater than 10 µM in the assay on IL-6 (THP-1 cells). The inhibition at 10 µM is 34.7% with SW480 colon cancer cells, 0% in assay [2] and 26.9% in the assay with IL-6 (THP-1 cells).
On to `CCCCC(=O)Nc1cncc(-c2cc3c(-c4cc5c(-c6cccc(F)c6)nccc5[nH]4)n[nH]c3cn2)c1` [Compound 19, N-(5-(3-(4-(3-Fluorophenyl)-1H-pyrrolo[3,2-c]pyridin-2-yl)-1H-pyrazolo[3,4-c]pyridin-5-yl)pyridin-3-yl)pentanamide], for which the EC50 was found to be 1.33 µM with SW480 colon cancer cells, 1.14 µM in assay [1], 0.96 µM in assay [2] and 1.09 µM with IL-6 (THP-1 cells).
Taken in the same sequence, the figures for `O=C(Nc1cncc(-c2cc3c(-c4cc5c(-c6cccc(F)c6)nccc5[nH]4)n[nH]c3cn2)c1)C1CCCCC1` [Compound 23, N-(5-(3-(4-(3-Fluorophenyl)-1H-pyrrolo[3,2-c]pyridin-2-yl)-1H-pyrazolo[3,4-c]pyridin-5-yl)pyridin-3-yl)cyclohexanecarboxamide] were 1.44 µM, 1.23 µM, 0.678 µM and 2.03 µM.
Turning to `CC(C)Nc1cncc(-c2cc3c(-c4cc5c(-c6ccc(F)cc6)nccc5[nH]4)n[nH]c3cn2)c1` [Compound 40, 5-(3-(4-(4-Fluorophenyl)-1H-pyrrolo[3,2-c]pyridin-2-yl)-1H-pyrazolo[3,4-c]pyridin-5-yl)-N-isopropylpyridin-3-amine], the concentration giving a half-maximal response (EC50) in the assay on SW480 colon cancer cells was 0.773 µM; in assay [1], 0.343 µM; in assay [2], 0.056 µM; in the assay on IL-6 (THP-1 cells), 0.38 µM.
Regarding `O=C(Cc1ccccc1)Nc1cncc(-c2cc3c(-c4cc5c(-c6ccccc6F)nccc5[nH]4)n[nH]c3cn2)c1` [Compound 66, N-(5-(3-(4-(2-Fluorophenyl)-1H-pyrrolo[3,2-c]pyridin-2-yl)-1H-pyrazolo[3,4-c]pyridin-5-yl)pyridin-3-yl)-2-phenylacetamide], the 50% effective concentration (EC50) in the assay on SW480 colon cancer cells turned out to be 1.85 µM; in assay [1], 2 µM; in assay [2] it was 3.31 µM; with IL-6 (THP-1 cells) it was 3.25 µM.
With `CC(C)CC(=O)Nc1cncc(-c2cc3c(-c4cc5c(-c6cccnc6)nccc5[nH]4)n[nH]c3cn2)c1` [Compound 86, 3-Methyl-N-(5-(3-(4-(pyridin-3-yl)-1H-pyrrolo[3,2-c]pyridin-2-yl)-1H-pyrazolo[3,4-c]pyridin-5-yl)pyridin-3-yl)butanamide], the EC50 was greater than 10 µM with SW480 colon cancer cells, greater than 10 µM in assay [1], 1.92 µM in assay [2] and greater than 10 µM in the assay on IL-6 (THP-1 cells). Besides, the inhibition at 10 µM with SW480 colon cancer cells was 3.6%; in assay [1] it was 29.9%; with IL-6 (THP-1 cells), 0%.
For the compound `c1cc(-c2cc3c(-c4cc5c(-c6ccncc6)nccc5[nH]4)n[nH]c3cn2)ccn1` [Compound 130, 5-(Pyridin-4-yl)-3-(4-(pyridin-4-yl)-1H-pyrrolo[3,2-c]pyridin-2-yl)-1H-pyrazolo[3,4-c]pyridine], the concentration for a half-maximal effect (EC50) with SW480 colon cancer cells was greater than 10 µM; in assay [1], 0.418 µM; in assay [2], 0.096 µM; in the assay on IL-6 (THP-1 cells), greater than 10 µM. Further, the inhibition at 10 µM amounted to 36.6% with SW480 colon cancer cells and 0% with IL-6 (THP-1 cells).
`CC(C)CC(=O)Nc1cncc(-c2cc3c(-c4cc5c(N6CCCCC6)nccc5[nH]4)n[nH]c3cn2)c1` [Compound 170, 3-Methyl-N-(5-(3-(4-(piperidin-1-yl)-1H-pyrrolo[3,2-c]pyridin-2-yl)-1H-pyrazolo[3,4-c]pyridin-5-yl)pyridin-3-yl)butanamide]: the EC50 in the assay on SW480 colon cancer cells came out at 1.5 µM; in assay [1], 1.25 µM; in assay [2] it was 2.36 µM; in the assay with IL-6 (THP-1 cells) it was 1.78 µM.
Regarding `c1cncc(-c2cc3c(-c4cc5c(N6CCCCC6)nccc5[nH]4)n[nH]c3cn2)c1` [Compound 172, 3-(4-(Piperidin-1-yl)-1H-pyrrolo[3,2-c]pyridin-2-yl)-5-(pyridin-3-yl)-1H-pyrazolo[3,4-c]pyridine], the EC50 was greater than 10 µM in the assay on SW480 colon cancer cells, 0.632 µM in assay [1], greater than 10 µM in assay [2] and greater than 10 µM in the assay with IL-6 (THP-1 cells). Further, the inhibition at 10 µM came out at 10.8% in the assay with SW480 colon cancer cells, 0% in assay [2] and 0% in the assay on IL-6 (THP-1 cells).
`O=C(Cc1ccccc1)Nc1cncc(-c2cc3c(-c4cc5c(N6CCCCC6)nccc5[nH]4)n[nH]c3cn2)c1` [Compound 178, 2-Phenyl-N-(5-(3-(4-(piperidin-1-yl)-1H-pyrrolo[3,2-c]pyridin-2-yl)-1H-pyrazolo[3,4-c]pyridin-5-yl)pyridin-3-yl)acetamide]: the EC50 in the assay on SW480 colon cancer cells was 6.5 µM; in assay [1] it was 4.23 µM; in assay [2], greater than 10 µM; in the assay with IL-6 (THP-1 cells) it was 9.32 µM. For the same compound, the inhibition at 10 µM in assay [2] is 0%.
Consider `CC(C)Nc1cncc(-c2cc3c(-c4cc5c(N6CCCCC6)nccc5[nH]4)n[nH]c3cn2)c1` [Compound 180, N-Isopropyl-5-(3-(4-(piperidin-1-yl)-1H-pyrrolo[3,2-c]pyridin-2-yl)-1H-pyrazolo[3,4-c]pyridin-5-yl)pyridin-3-amine], for which the 50% effective concentration (EC50) with SW480 colon cancer cells stood at 4.16 µM; in assay [1] it was 2.45 µM; in assay [2], 2.6 µM; in the assay on IL-6 (THP-1 cells), 3.39 µM.
`c1cc2[nH]c(-c3n[nH]c4cnc(-c5cncc(CN6CCCC6)c5)cc34)cc2c(N2CCCCC2)n1` [Compound 182, 3-(4-(Piperidin-1-yl)-1H-pyrrolo[3,2-c]pyridin-2-yl)-5-(5-(pyrrolidin-1-ylmethyl)pyridin-3-yl)-1H-pyrazolo[3,4-c]pyridine]: the EC50 (in the assay with SW480 colon cancer cells; in assay [1]; in assay [2]; in the assay on IL-6 (THP-1 cells)) was greater than 10 µM each time. The inhibition at 10 µM in the assay with SW480 colon cancer cells worked out at 13%; in assay [1], 12.7%; in assay [2], 0%; in the assay on IL-6 (THP-1 cells), 0%.
With `CN1CCN(c2nccc3[nH]c(-c4n[nH]c5cnc(-c6cncnc6)cc45)cc23)CC1` [Compound 251, 3-(4-(4-Methylpiperazin-1-yl)-1H-pyrrolo[3,2-c]pyridin-2-yl)-5-(pyrimidin-5-yl)-1H-pyrazolo[3,4-c]pyridine], the EC50 (with SW480 colon cancer cells; in assay [1]; in assay [2]; with IL-6 (THP-1 cells)) was greater than 10 µM in each case. In addition, the inhibition at 10 µM in the assay with SW480 colon cancer cells was 0%; in assay [1], 41.7%; in assay [2], 17.6%; in the assay on IL-6 (THP-1 cells) it was 12.1%.
